Data on 27 compounds can be found in US9303012B2, “Pyridine-2-amides useful as CB2 agonists” (Hoffmann-La Roche Inc., priority 2012, dated 2016).

In one assay the target is human CB1 receptors (Homo sapiens (Human), UniProt P21554). Put plainly: functional cAMP assay, CHO cells expressing human CB1 receptors. Format: cell-based. Put shortly:
(§1)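 Agonist EC50 values came from cAMP levels in CHO cells carrying human CB1 or CB2, after 30 min of compound treatment at 30 °C in the presence of 1 mM IBMX. Detection used a time-resolved FRET cAMP kit read against a cAMP standard curve.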

In a further assay the target is human CB2 receptors (Homo sapiens (Human), UniProt P34972). Put plainly: functional cAMP assay, CHO cells expressing human CB2 receptors. Format: cell-based. An outline of the steps: as §1
A general note: Changes in cAMP serve as a functional read-out for many G protein-coupled receptors.

Sequence of human CB1 receptors (P21554 whole entry): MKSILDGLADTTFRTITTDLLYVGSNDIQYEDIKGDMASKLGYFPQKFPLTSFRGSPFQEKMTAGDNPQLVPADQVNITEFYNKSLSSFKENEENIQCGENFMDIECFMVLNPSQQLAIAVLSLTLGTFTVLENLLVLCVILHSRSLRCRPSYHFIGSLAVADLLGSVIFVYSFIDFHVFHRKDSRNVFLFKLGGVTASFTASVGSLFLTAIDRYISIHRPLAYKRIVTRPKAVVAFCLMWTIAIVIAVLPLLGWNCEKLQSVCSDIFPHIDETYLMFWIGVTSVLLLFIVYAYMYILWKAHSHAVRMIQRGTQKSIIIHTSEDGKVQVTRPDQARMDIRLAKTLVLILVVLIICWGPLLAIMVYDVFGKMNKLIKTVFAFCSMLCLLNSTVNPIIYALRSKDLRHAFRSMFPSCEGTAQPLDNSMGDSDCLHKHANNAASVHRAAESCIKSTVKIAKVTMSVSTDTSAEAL
Sequence of human CB2 receptors (P34972 whole entry): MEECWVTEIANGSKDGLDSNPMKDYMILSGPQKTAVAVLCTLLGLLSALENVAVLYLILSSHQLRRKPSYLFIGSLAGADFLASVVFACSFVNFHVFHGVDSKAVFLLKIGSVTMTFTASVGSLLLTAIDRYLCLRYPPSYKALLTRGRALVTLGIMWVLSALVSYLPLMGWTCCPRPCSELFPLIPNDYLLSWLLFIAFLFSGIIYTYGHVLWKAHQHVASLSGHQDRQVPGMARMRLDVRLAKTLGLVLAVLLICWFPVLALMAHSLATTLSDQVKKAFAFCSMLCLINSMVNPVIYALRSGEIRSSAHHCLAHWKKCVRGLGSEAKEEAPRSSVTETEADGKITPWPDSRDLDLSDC

In general, EC50 refers to the concentration needed to bring the measured effect to its halfway point. Low values mean higher potency in that assay, high ones lower potency in that assay. As to `NC(=O)[C@@H]1C[C@@H](F)CN1C(=O)c1ccc(N2CC(F)(F)C2)c(OCC2CC2)n1` [Example 126, (2S,4R)-1-[6-(Cyclopropylmethoxy)-5-(3,3-difluoroazetidin-1-yl)pyridine-2-carbonyl]-4-fluoropyrrolidine-2-carboxamide], the EC50 was more than 10000 nM at human CB1 receptors and 40 nM at human CB2 receptors.

For `NC(=O)[C@@H]1CS(=O)(=O)CN1C(=O)c1ccc(N2CC(F)(F)C2)c(OCC2CC2)n1` [Example 127, (−)-3-[6-(Cyclopropylmethoxy)-5-(3,3-difluoroazetidin-1-yl)pyridine-2-carbonyl]-1,1-dioxo-1,3-thiazolidine-4-carboxamide], the EC50 on human CB1 receptors was more than 10000 nM; at human CB2 receptors, 3.4 nM.

In the case of `COC1CN(c2ccc(C(=O)N3CS(=O)(=O)CC3C(N)=O)nc2OCC2CC2)C1` (stereo not drawn) [Example 128, 3-[6-(Cyclopropylmethoxy)-5-(3-methoxyazetidin-1-yl)pyridine-2-carbonyl]-1,1-dioxo-1,3-thiazolidine-4-carboxamide], the figures for the half-maximal effective concentration (EC50) at human CB1 receptors and at human CB2 receptors were more than 10000 nM and 30.2 nM, respectively.

Turning to `NC(=O)[C@@H]1CC(F)(F)CN1C(=O)c1ccc(C2(O)CCC2)c(OCC2CC2)n1` [Example 129, (2S)-1-[6-(Cyclopropylmethoxy)-5-(1-hydroxycyclobutyl)pyridine-2-carbonyl]-4,4-difluoropyrrolidine-2-carboxamide], the EC50 on human CB1 receptors was more than 10000 nM; at human CB2 receptors it was 75.8 nM.

Take `NC(=O)[C@@H]1CC(F)(F)CN1C(=O)c1ccc(C2(F)CCC2)c(OCC2CC2)n1` [Example 130, (2S)-1-[6-(Cyclopropylmethoxy)-5-(1-fluorocyclobutyl)pyridine-2-carbonyl]-4,4-difluoropyrrolidine-2-carboxamide]: the EC50 on human CB1 receptors is more than 10000 nM; on human CB2 receptors, 2.3 nM.

In the case of `NC(=O)C1CS(=O)(=O)CN1C(=O)c1ccc(C2(O)CCC2)c(OCC2CC2)n1` (stereo not drawn) [Example 131, 3-[6-(Cyclopropylmethoxy)-5-(1-hydroxycyclobutyl)pyridine-2-carbonyl]-1,1-dioxo-1,3-thiazolidine-4-carboxamide], the half-maximal effective concentration (EC50) at human CB1 receptors is more than 10000 nM; at human CB2 receptors, 62.5 nM.

With `CC1(O)C[C@@H](C(N)=O)N(C(=O)c2ccc(N3CC(F)(F)C3)c(OCC3CC3)n2)C1` (stereo partly drawn) [Example 132, (2S)-1-[6-(Cyclopropylmethoxy)-5-(3,3-difluoroazetidin-1-yl)pyridine-2-carbonyl]-4-hydroxy-4-methylpyrrolidine-2-carboxamide], the results for the EC50 on human CB1 receptors and on human CB2 receptors were more than 10000 nM and 30.1 nM, respectively.

On to `NC(=O)C1CS(=O)(=O)CN1C(=O)c1ccc(C2(F)CCC2)c(OCC2CC2)n1` (stereo not drawn) [Example 133, 3-[6-(Cyclopropylmethoxy)-5-(1-fluorocyclobutyl)pyridine-2-carbonyl]-1,1-dioxo-1,3-thiazolidine-4-carboxamide], for which the values for the EC50 on human CB1 receptors and at human CB2 receptors were more than 10000 nM and 10.2 nM, respectively.

In the case of `NC(=O)[C@@H]1CC(F)(F)CN1C(=O)c1ccc(C2(F)COC2)c(OCC2CC2)n1` [Example 134, (2S)-1-[6-(Cyclopropylmethoxy)-5-(3-fluorooxetan-3-yl)pyridine-2-carbonyl]-4,4-difluoropyrrolidine-2-carboxamide], the EC50 on human CB1 receptors is more than 10000 nM; on human CB2 receptors, 52.2 nM.

Turning to `NC(=O)C1CC2(CC2)CN1C(=O)c1ccc(N2CC(F)(F)C2)c(OCC2CC2)n1` (stereo not drawn) [Example 135, 5-[6-(Cyclopropylmethoxy)-5-(3,3-difluoroazetidin-1-yl)pyridine-2-carbonyl]-5-azaspiro[2.4]heptane-6-carboxamide], the EC50 at human CB1 receptors is more than 10000 nM; on human CB2 receptors, 15.6 nM.

On to `O=C(c1ccc(N2CC(F)(F)C2)c(OCC2CC2)n1)N1CCC(C(O)C(F)(F)F)C1` (stereo not drawn) [Example 136, [6-(Cyclopropylmethoxy)-5-(3,3-difluoroazetidin-1-yl)pyridin-2-yl]-[3-(2,2,2-trifluoro-1-hydroxyethyl)pyrrolidin-1-yl]methanone], for which the EC50 at human CB1 receptors is more than 10000 nM; at human CB2 receptors, 32.9 nM.

As to `O=C(c1ccc(N2CC(F)(F)C2)c(OCC2CC2)n1)N1CCC(CO)(C(F)(F)F)C1` (stereo not drawn) [Example 137, [6-(Cyclopropylmethoxy)-5-(3,3-difluoroazetidin-1-yl)pyridin-2-yl]-[3-(hydroxymethyl)-3-(trifluoromethyl)pyrrolidin-1-yl]methanone], the EC50 at human CB1 receptors is more than 10000 nM; on human CB2 receptors, 53.8 nM.

Take `O=C(c1ccc(N2CC(F)(F)C2)c(OCC2CC2)n1)N1CCC(O)(C(F)(F)F)C1` (stereo not drawn) [Example 138, [6-(Cyclopropylmethoxy)-5-(3,3-difluoroazetidin-1-yl)pyridin-2-yl]-[3-hydroxy-3-(trifluoromethyl)pyrrolidin-1-yl]methanone]: the EC50 at human CB1 receptors is more than 10000 nM; at human CB2 receptors it was 83.5 nM.

Turning to `O=C(c1ccc(N2CC(F)(F)C2)c(OCC2CC2)n1)N1CC(O)(C(F)(F)F)C1` [Example 139, [6-(Cyclopropylmethoxy)-5-(3,3-difluoroazetidin-1-yl)pyridin-2-yl]-[3-hydroxy-3-(trifluoromethyl)azetidin-1-yl]methanone], the values for the 50% effective concentration (EC50) on human CB1 receptors and at human CB2 receptors were more than 10000 nM and 42 nM, respectively.

As for `C[C@]1(O)C[C@@H](C(N)=O)N(C(=O)c2ccc(N3CC(F)(F)C3)c(OCC3CC3)n2)C1` [Example 140, (+)-(2S)-1-[6-(Cyclopropylmethoxy)-5-(3,3-difluoroazetidin-1-yl)pyridine-2-carbonyl]-4-hydroxy-4-methylpyrrolidine-2-carboxamide], the EC50 at human CB1 receptors was more than 10000 nM; on human CB2 receptors, 40.6 nM.

As to `O=C(c1ccc(C2CC2)c(OCC2CC2)n1)N1CCC(C(O)C(F)(F)F)C1` (stereo not drawn) [Example 141, [5-Cyclopropyl-6-(cyclopropylmethoxy)pyridin-2-yl]-[3-(2,2,2-trifluoro-1-hydroxyethyl)pyrrolidin-1-yl]methanone], the EC50 on human CB1 receptors is more than 10000 nM; on human CB2 receptors, 262 nM.

As to `O=C(c1ccc(C2CC2)c(OCC2CC2)n1)N1CCC(CO)(C(F)(F)F)C1` (stereo not drawn) [Example 142, [5-Cyclopropyl-6-(cyclopropylmethoxy)pyridin-2-yl]-[3-(hydroxymethyl)-3-(trifluoromethyl)pyrrolidin-1-yl]methanone], the concentration giving a half-maximal response (EC50) was more than 10000 nM on human CB1 receptors and 26.3 nM on human CB2 receptors.

Consider `O=C(c1ccc(C2CC2)c(OCC2CC2)n1)N1CCC(O)(C(F)(F)F)C1` (stereo not drawn) [Example 143, [5-Cyclopropyl-6-(cyclopropylmethoxy)pyridin-2-yl]-[3-hydroxy-3-(trifluoromethyl)pyrrolidin-1-yl]methanone], for which the EC50 is more than 10000 nM at human CB1 receptors and 87.8 nM at human CB2 receptors.

Take `O=C(c1ccc(C2CC2)c(OCC2CC2)n1)N1CC(O)(C(F)(F)F)C1` [Example 144, [5-Cyclopropyl-6-(cyclopropylmethoxy)pyridin-2-yl]-[3-hydroxy-3-(trifluoromethyl)azetidin-1-yl]methanone]: the EC50 at human CB1 receptors was more than 10000 nM; on human CB2 receptors, 73 nM.

Consider `NC(=O)[C@@H]1CC2(CC2)CN1C(=O)c1ccc(N2CC(F)(F)C2)c(OCC2CC2)n1` [Example 145, (6S)-5-[6-(Cyclopropylmethoxy)-5-(3,3-difluoroazetidin-1-yl)pyridine-2-carbonyl]-5-azaspiro[2.4]heptane-6-carboxamide], for which the results for the EC50 at human CB1 receptors and on human CB2 receptors were more than 10000 nM and 356 nM, respectively.

With `O=C(c1ccc(N2CC(F)(F)C2)c(OCC2CC2)n1)N1C[C@H]2COC[C@H]2C1` [Example 146, [(3aR,6aS)-1,3,3a,4,6,6a-Hexahydrofuro[3,4-c]pyrrol-5-yl]-[6-(cyclopropylmethoxy)-5-(3,3-difluoroazetidin-1-yl)pyridin-2-yl]methanone], the results for the EC50 at human CB1 receptors and at human CB2 receptors were more than 10000 nM and 167 nM, respectively.

`NC(=O)[C@@H]1CC(F)(F)CN1C(=O)c1ccc(N2CC(F)(F)C2)c(OCCF)n1` [Example 147, (2S)-1-[5-(3,3-Difluoroazetidin-1-yl)-6-(2-fluoroethoxyl)pyridine-2-carbonyl]-4,4-difluoro-pyrrolidine-2-carboxamide]: the EC50 at human CB1 receptors was more than 10000 nM; on human CB2 receptors, 1170 nM.

Turning to `O=C(c1ccc(N2CC(F)(F)C2)c(OCC2CC2)n1)N1CC(F)(CO)C1` [Example 148, [6-(Cyclopropylmethoxy)-5-(3,3-difluoroazetidin-1-yl)-2-pyridyl]-[3-fluoro-3-(hydroxymethyl)azetidin-1-yl]methanone], the EC50 on human CB1 receptors is more than 10000 nM; at human CB2 receptors, 451 nM.

Turning to `CC1(F)CN(C(=O)c2ccc(N3CC(F)(F)C3)c(OCC3CC3)n2)C1` [Example 149, [6-(Cyclopropylmethoxy)-5-(3,3-difluoroazetidin-1-yl)-2-pyridyl]-(3-fluoro-3-methyl-azetidin-1-yl)methanone], the EC50 is more than 10000 nM at human CB1 receptors and 79 nM on human CB2 receptors.

With `O=C(c1ccc(N2CC(F)(F)C2)c(OCC2CC2)n1)N1CC(F)(C2CC2)C1` [Example 150, (3-Cyclopropyl-3-fluoroazetidin-1-yl)-[6-(cyclopropylmethoxy)-5-(3,3-difluoroazetidin-1-yl)pyridin-2-yl]methanone], the EC50 is more than 10000 nM at human CB1 receptors and 8 nM on human CB2 receptors.

For `NC(=O)[C@@H]1N(C(=O)c2ccc(N3CC(F)(F)C3)c(OCC3CC3)n2)CCC12CC2` [Example 151, (−)-5-[6-(Cyclopropylmethoxy)-5-(3,3-difluoroazetidin-1-yl)pyridine-2-carbonyl]-5-azaspiro[2.4]heptane-4-carboxamide], the EC50 at human CB1 receptors was more than 10000 nM; at human CB2 receptors, 818 nM.

As for `NC(=O)[C@H]1N(C(=O)c2ccc(N3CC(F)(F)C3)c(OCC3CC3)n2)CCC12CC2` [Example 152, (+)-5-[6-(Cyclopropylmethoxy)-5-(3,3-difluoroazetidin-1-yl)pyridine-2-carbonyl]-5-azaspiro[2.4]heptane-4-carboxamide], the EC50 is more than 10000 nM at human CB1 receptors and 338 nM on human CB2 receptors.
